Measured values taken from US20200077658A1, “Pesticidal Compounds” (BASF SE, priority 2016, published 2020).

Experiments:
Type in all cases: in vivo
[1] = system: Silverleaf Whitefly (Bemisia argentifoli) (Adults); assay: Action on silverleaf whitefly (Bemisia argentifoli) adults, sprayed cotton plants; conditions: Bemisia argentifolii, 72 h, 3 days after treatment, read-out: mortality in comparison with untreated controls
Experimental: (§1) The active compounds were formulated by a Tecan liquid handler in 100% cyclohexanone as a 10,000 ppm solution supplied in tubes. The 10,000 ppm solution was serially diluted in 100% cyclohexanone to make interim solutions. These served as stock solutions for which final dilutions were made by the Tecan in 50% acetone:50% water (v/v) into 5 or 10 ml glass vials. A nonionic surfactant (Kinetic®) was included in the solution at a volume of 0.01% (v/v). The vials were then inserted into an automated electrostatic sprayer equipped with an atomizing nozzle for application to plants/insects.
Cotton plants at the cotyledon stage (one plant per pot) were sprayed by an automated electrostatic plant sprayer equipped with an atomizing spray nozzle. The plants were dried in the sprayer fume hood and then removed from the sprayer. Each pot was placed into a plastic cup and about 10 to 12 whitefly adults (approximately 3-5 days old) were introduced. The insects were collected using an aspirator and a nontoxic Tygon® tubing connected to a barrier pipette tip. The tip, containing the collected insects, was then gently inserted into the soil containing the treated plant, allowing insects to crawl out of the tip to reach the foliage for feeding. Cups were covered with a reusable screened lid. Test plants were maintained in a growth room at about […] and about 20-40% relative humidity for 3 days, avoiding direct exposure to fluorescent light (24 hour photoperiod) to prevent trapping of heat inside the cup. Mortality was assessed 3 days after treatment, compared to untreated control plants.

[2] = system: tobacco budworm (Heliothis virescens); assay: Action on tobacco budworm (Heliothis virescens), 96-well microtiter plate diet test; conditions: 120 h, egg and larval mortality after 5 days, read-out: mortality in comparison with untreated controls
Experimental: For evaluating control of tobacco budworm (Helliothis virescens) the test unit consisted of 96-well-microtiter plates containing an insect diet and 15-25 H. virescens eggs.
The compounds were formulated using a solution containing 75% v/v water and 25% v/v DMSO. Different concentrations of formulated compounds were sprayed onto the insect diet at 10 μl, using a custom built micro atomizer, at two replications.
After application, microtiter plates were incubated at about 28±1° C. and about 80±5% relative humidity for 5 days. Egg and larval mortality was then visually assessed.

[3] = system: Southern Armyworm (Spodoptera eridania), 2nd Instar Larvae; assay: Action on southern armyworm (Spodoptera eridania), 2nd instar larvae, sprayed lima bean plants; conditions: 96 h, 2nd instar larvae on lima bean, 4 days after treatment, read-out: mortality in comparison with untreated controls
Experimental: as §1, with “into 10” for “into 5”, “or 20” for “or 10”
Lima bean plants (variety Sieva) were grown 2 plants to a pot and selected for treatment at the 1st true leaf stage. Test solutions were sprayed onto the foliage by an automated electrostatic plant sprayer equipped with an atomizing spray nozzle. The plants were dried in the sprayer fume hood and then removed from the sprayer. Each pot was placed into perforated plastic bags with a zip closure. About 10 to 11 armyworm larvae were placed into the bag and the bags zipped closed. Test plants were maintained in a growth room at about 250C and about 20-40% relative humidity for 4 days, avoiding direct exposure to fluorescent light (24 hour photoperiod) to prevent trapping of heat inside the bags. Mortality and reduced feeding were assessed 4 days after treatment, compared to untreated control plants.

[4] = system: Diamond Back Moth (Plutella xylostella); assay: Action on diamond back moth (Plutella xylostella), cabbage leaf dip; conditions: foliar, 3rd instar larvae on dipped cabbage leaves, 72 hours after treatment, read-out: mortality in comparison with untreated controls
Experimental: The active compound is dissolved at the desired concentration in a mixture of 1:1 (vol:vol) distilled water:acetone. Surfactant (Kinetic® HV) is added at a rate of 0.01% (vol/vol).The test solution is prepared at the day of use.
Leaves of cabbage were dipped in test solution and air-dried. Treated leaves were placed in petri dishes lined with moist filter paper and inoculated with ten 3rd instar larvae. Mortality was recorded 72 hours after treatment. Feeding damages were also recorded using a scale of 0-100%.

[5] = system: Orchid thrips (Dichromothrips corbetti); assay: Action on orchid thrips (Dichromothrips corbetti), floral-immersion technique; conditions: adult thrips, mortality 72 hours after treatment, read-out: mortality in comparison with untreated controls
Experimental: Dichromothrips corbetti adults used for bioassay were obtained from a colony maintained continuously under laboratory conditions. For testing purposes, the test compound is diluted in a 1:1 mixture of acetone:water (vol:vol), plus Kinetic® HV at a rate of 0.01% v/v.
Thrips potency of each compound was evaluated by using a floral-immersion technique. All petals of individual, intact orchid flowers were dipped into treatment solution and allowed to dry in Petri dishes. Treated petals were placed into individual re-sealable plastic along with about 20 adult thrips. All test arenas were held under continuous light and a temperature of about 28° C. for duration of the assay. After 3 days, the numbers of live thrips were counted on each petal. The percent mortality was recorded 72 hours after treatment.

[6] = system: yellow fever mosquito (Aedes aegypti); assay: whole plant or invertebrate; conditions: 48 h, larval mortality visually assessed after 2 days, read-out: mortality in comparison with untreated controls
Experimental: For evaluating control of yellow fever mosquito (Aedes aegypti) the test unit consisted of 96-well-microtiter plates containing 200 μl of tap water per well and 5-15 freshly hatched A. aegypti larvae.
The active compounds were formulated using a solution containing 75% (v/v) water and 25% (v/v) DMSO. Different concentrations of formulated compounds or mixtures were sprayed onto the insect diet at 2.5 μl, using a custom built micro atomizer, at two replications.
After application, microtiter plates were incubated at 28±1° C., 80±5% RH for 2 days. Larval mortality was then visually assessed.

[7] = system: boll weevil (Anthonomus grandis); assay: Action on boll weevil (Anthonomus grandis), 96-well microtiter plate diet test; conditions: 120 h, egg and larval mortality after 5 days, read-out: mortality in comparison with untreated controls
Experimental: For evaluating control of boll weevil (Anthonomus grandis) the test unit consisted of 96-well-microtiter plates containing an insect diet and 5-10 A. grandis eggs.
The compounds were formulated using a solution containing 75% v/v water and 25% v/v DMSO. Different concentrations of formulated compounds were sprayed onto the insect diet at 5 μl, using a custom built micro atomizer, at two replications.
After application, microtiter plates were incubated at about 25±1° C. and about 75±5% relative humidity for 5 days. Egg and larval mortality was then visually assessed.

CC(C)c1ccccc1N1C(=O)CS\C1=N/N=C/C=C/c1cnc(N(C)c2ccc(OC(F)(F)F)cc2)nc1 [Compound C-5, (2Z)-3-(2-isopropylphenyl)-2-[(E)-[(E)-3-[2-[N-methyl-4-(trifluoromethoxy)anilino]pyrimidin-5-yl]prop-2-enylidene]hydrazono]thiazolidin-4-one]
≥ 75%: mortality at 300 ppm [1] | mortality at 800 ppm [2] | mortality at 300 ppm [3] | mortality at 500 ppm [4] | mortality at 500 ppm [5] | mortality at 800 ppm [6] | mortality at 800 ppm [7]

CC(/C=N/NC(=S)Nc1ccccc1C(C)C)=C\c1ccc(N(C)c2ccc(OC(F)(F)F)cc2)nn1 [Compound C-26, 1-(2-isopropylphenyl)-3-[(E)-[(E)-2-methyl-3-[6-[N-methyl-4-(trifluoromethoxy)anilino]pyridazin-3-yl]prop-2-enylidene]amino]thiourea]
≥ 75%: mortality at 300 ppm [1] | mortality at 800 ppm [2] | mortality at 300 ppm [3] | mortality at 500 ppm [4] | mortality at 500 ppm [5] | mortality at 800 ppm [7]

CC(/C=N/N=C1\SCC(=O)N1c1ccccc1C(C)C)=C\c1cnc(Nc2ccc(OC(F)(F)F)cc2)nc1 [Compound C-3, (2Z)-3-(2-isopropylphenyl)-2-[(E)-[(E)-2-methyl-3-[2-[4-(trifluoromethoxy)anilino]pyrimidin-5-yl]prop-2-enylidene]hydrazono]thiazolidin-4-one]
≥ 75%: mortality at 300 ppm [1] | mortality at 800 ppm [2] | mortality at 300 ppm [3] | mortality at 500 ppm [4] | mortality at 500 ppm [5] | mortality at 800 ppm [6] | mortality at 800 ppm [7]

CO[C@@H]1[C@@H](OC)[C@@H](OC)C(O/N=C/C(C)=C/c2cnc(N(C)c3ccc(OC(F)(F)F)cc3)nc2)O[C@H]1C (stereo partly drawn) [Compound C-23, N-methyl-5-[(E,3E)-2-methyl-3-[(3R,4R,5S,6S)-3,4,5-trimethoxy-6-methyl-tetrahydropyran-2-yl]oxyimino-prop-1-enyl]-N-[4-(trifluoromethoxy)phenyl]pyrimidin-2-amine]
≥ 75%: mortality at 300 ppm [1] | mortality at 800 ppm [2] | mortality at 300 ppm [3] | mortality at 500 ppm [4] | mortality at 500 ppm [5] | mortality at 800 ppm [6] | mortality at 800 ppm [7]

CC(/C=N/NC(=S)Nc1ccccc1C(C)C)=C\c1cnc(N(C)c2ccc(OC(F)(F)F)cc2)nc1 [Compound C-6, 1-(2-isopropylphenyl)-3-[(E)-[(E)-2-methyl-3-[2-[N-methyl-4-(trifluoromethoxy)anilino]pyrimidin-5-yl]prop-2-enylidene]amino]thiourea]
≥ 75%: mortality at 300 ppm [1] | mortality at 800 ppm [2] | mortality at 300 ppm [3] | mortality at 500 ppm [4] | mortality at 500 ppm [5] | mortality at 800 ppm [6] | mortality at 800 ppm [7]

CC(/C=N/N=C1\SCC(=O)N1c1ccccc1C(C)C)=C\c1ccc(N(C)c2ccc(OC(F)(F)F)cc2)nc1 [Compound C-12, (2Z)-3-(2-isopropylphenyl)-2-[(E)-[(E)-2-methyl-3-[6-[N-methyl-4-(trifluoromethoxy)anilino]-3-pyridyl]prop-2-enylidene]hydrazono]thiazolidin-4-one]
≥ 75%: mortality at 300 ppm [1] | mortality at 800 ppm [2] | mortality at 300 ppm [3] | mortality at 500 ppm [4] | mortality at 500 ppm [5] | mortality at 800 ppm [6] | mortality at 800 ppm [7]

CC(/C=N/NC(=S)Nc1ccccc1C(C)C)=C\c1cnc(N(C)c2ccc(OC(F)(F)F)cc2)c(N(C)C)c1 [Compound C-8, 1-[(E)-[(E)-3-[5-(dimethylamino)-6-[N-methyl-4-(trifluoromethoxy)anilino]-3-pyridyl]-2-methyl-prop-2-enylidene]amino]-3-(2-isopropylphenyl)thiourea]
≥ 75%: mortality at 300 ppm [1] | mortality at 800 ppm [2] | mortality at 300 ppm [3] | mortality at 500 ppm [4] | mortality at 800 ppm [7]

CC(/C=N/NC(=S)Nc1ccccc1C(C)C)=C\c1ccc(N(C)c2ccc(OC(F)(F)F)cc2)nc1 [Compound C-15, 1-(2-isopropylphenyl)-3-[(E)-[(E)-2-methyl-3-[6-[N-methyl-4-(trifluoromethoxy)anilino]-3-pyridyl]prop-2-enylidene]amino]thiourea]
≥ 75%: mortality at 300 ppm [1] | mortality at 800 ppm [2] | mortality at 300 ppm [3] | mortality at 500 ppm [4] | mortality at 500 ppm [5] | mortality at 800 ppm [7]

Cc1nc(N(C)c2ccc(OC(F)(F)F)cc2)ncc1CC(C)/C=N/NC(=S)Nc1ccccc1C(C)C (stereo not shown) [Compound C-22, 1-(2-isopropylphenyl)-3-[(E)-[2-methyl-3-[4-methyl-2-[N-methyl-4-(trifluoromethoxy)anilino]pyrimidin-5-yl]propylidene]amino]thiourea]
≥ 75%: mortality at 300 ppm [1] | mortality at 800 ppm [2] | mortality at 800 ppm [7]

CC(/C=N/N=C1\SCC(=O)N1c1ccccc1C(C)C)=C\c1ccc(N(C)c2ccc(OC(F)(F)F)cc2)nn1 [Compound C-27, (2Z)-3-(2-isopropylphenyl)-2-[(E)-[(E)-2-methyl-3-[6-[N-methyl-4-(trifluoromethoxy)anilino]pyridazin-3-yl]prop-2-enylidene]hydrazono]thiazolidin-4-one]
≥ 75%: mortality at 800 ppm [2] | mortality at 300 ppm [3] | mortality at 500 ppm [4] | mortality at 500 ppm [5] | mortality at 800 ppm [6] | mortality at 800 ppm [7]

CC(/C=N/N=C1\SCC(=O)N1c1ccccc1C(C)C)=C\c1cnc(N(C)c2ccc(OC(F)(F)F)cc2)c(N(C)C)c1 [Compound C-9, (2Z)-2-[(E)-[(E)-3-[5-(dimethylamino)-6-[N-methyl-4-(trifluoromethoxy)anilino]-3-pyridyl]-2-methyl-prop-2-enylidene]hydrazono]-3-(2-isopropylphenyl)thiazolidin-4-one]
≥ 75%: mortality at 800 ppm [2] | mortality at 300 ppm [3] | mortality at 500 ppm [4] | mortality at 500 ppm [5] | mortality at 800 ppm [6] | mortality at 800 ppm [7]
